Experimental data as given in the supplement of paper PMC6045584.
± gives the standard deviation of the averaged measurements.

Legend:
[1] = compound: Cc1ccc(-c2cc(C(F)(F)F)nn2-c2ccc(S(N)(=O)=O)cc2)cc1 [CELECOXIB]; assay: surviving fraction relative to DMSO-only wells; higher = less growth inhibition; conditions: exposure time: 5 days
Method in brief: (§1)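 Viability was scored with CellTiter-Glo luminescence and normalised to the median of DMSO-only wells as surviving fraction. Beforehand, log-phase tumour cell lines were seeded at 250–500 cells per well in 384-well plates, allowed 24 hours, and exposed continuously for five days to inhibitors at 0.5, 1, 5, 10, 50, 100, 500 and 1000 nM. Only lines whose three screens gave replicate Pearson r >0.7 and median Z' >0.3 were kept.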

[2] = compound: CC(=O)NCC(=O)N1[C@@H]2CC[C@H]1c1ccc(Nc3ncc(C(F)(F)F)c(NC4CCC4)n3)cc12; assay: as above; conditions: exposure time: 5 days
Method in brief: as §1

Test System	surviving fraction ([1]; 0.5 nM)	surviving fraction ([1]; 1 nM)	surviving fraction ([1]; 5 nM)	surviving fraction ([1]; 10 nM)	surviving fraction ([1]; 50 nM)	surviving fraction ([1]; 100 nM)	surviving fraction ([1]; 500 nM)	surviving fraction ([1]; 1000 nM)	surviving fraction ([2]; 0.5 nM)	surviving fraction ([2]; 1 nM)	surviving fraction ([2]; 5 nM)	surviving fraction ([2]; 10 nM)	surviving fraction ([2]; 50 nM)	surviving fraction ([2]; 100 nM)	surviving fraction ([2]; 500 nM)	surviving fraction ([2]; 1000 nM)
ZR751 BREAST	1.1 ± 0.19	1.1 ± 0.077	1.05 ± 0.07	1.07 ± 0.076	1.09 ± 0.084	1.15 ± 0.1	1.06 ± 0.026	1.04 ± 0.19	0.874 ± 0.18	0.927 ± 0.062	0.923 ± 0.12	0.925 ± 0.04	0.774 ± 0.1	1.04 ± 0.094	0.815 ± 0.062	0.897 ± 0.038
JURKAT HAEMATOPOIETIC AND LYMPHOID TISSUE	1.03 ± 0.036	1.05 ± 0.032	1.03 ± 0.017	1.05 ± 0.029	0.986 ± 0.034	1 ± 0.03	1.03 ± 0.013	0.975 ± 0.035	1.07 ± 0.015	1.06 ± 0.028	1.07 ± 0.012	1.03 ± 0.03	0.286 ± 0.012	0.677 ± 0.018	0.395 ± 0.01	0.305 ± 0.019
CADOES1 SOFT TISSUE	0.792 ± 0.11	0.925 ± 0.091	0.807 ± 0.17	0.984 ± 0.052	0.973 ± 0.043	0.942 ± 0.024	0.888 ± 0.045	0.827 ± 0.097	0.969 ± 0.1	0.955 ± 0.099	0.883 ± 0.094	0.849 ± 0.1	0.565 ± 0.074	0.109 ± 0.011	0.0853 ± 0.005	0.0867 ± 0.0065
DU4475 BREAST	0.894 ± 0.08	0.836 ± 0.06	0.943 ± 0.095	0.937 ± 0.014	0.876 ± 0.051	0.892 ± 0.12	0.973 ± 0.18	0.872 ± 0.015	0.776 ± 0.12	0.802 ± 0.15	0.821 ± 0.16	0.783 ± 0.2	0.49 ± 0.36	0.131 ± 0.097	0.0413 ± 0.016	0.0397 ± 0.0038
G292 BONE	1.03 ± 0.028	1.02 ± 0.05	1.03 ± 0.039	1 ± 0.057	1.04 ± 0.02	1.02 ± 0.047	0.996 ± 0.045	0.964 ± 0.076	0.997 ± 0.043	0.968 ± 0.052	0.999 ± 0.025	0.949 ± 0.015	0.59 ± 0.028	0.485 ± 0.017	0.181 ± 0.0022	0.087 ± 0.001
22RV1 PROSTATE	1.02 ± 0.059	1.06 ± 0.082	0.996 ± 0.088	1.03 ± 0.025	0.956 ± 0.17	1.01 ± 0.16	1.02 ± 0.12	1.06 ± 0.035	0.97 ± 0.066	0.996 ± 0.047	0.937 ± 0.029	0.95 ± 0.03	0.587 ± 0.021	0.678 ± 0.026	0.625 ± 0.059	0.56 ± 0.066
NY BONE	0.989 ± 0.03	1.04 ± 0.041	1.09 ± 0.038	1.08 ± 0.022	1.11 ± 0.047	1.1 ± 0.039	1.01 ± 0.021	1.01 ± 0.053	0.962 ± 0.012	0.941 ± 0.029	0.9803 ± 0.0061	0.964 ± 0.03	0.69 ± 0.011	0.672 ± 0.025	0.432 ± 0.025	0.129 ± 0.0021
143B BONE	0.999 ± 0.011	1.04 ± 0.03	1.07 ± 0.057	1.05 ± 0.0021	1.08 ± 0.052	1.14 ± 0.072	1.08 ± 0.05	1.08 ± 0.033	0.98 ± 0.021	0.996 ± 0.013	1.01 ± 0.026	0.966 ± 0.018	0.868 ± 0.0085	0.928 ± 0.015	0.597 ± 0.039	0.495 ± 0.056
SJSA1 BONE	1.15 ± 0.061	1.68 ± 0.074	1.6 ± 0.048	1.54 ± 0.045	1.71 ± 0.07	1.81 ± 0.054	1.65 ± 0.039	1.85 ± 0.11	1.06 ± 0.086	1.08 ± 0.061	1.08 ± 0.047	1.03 ± 0.016	1.07 ± 0.026	0.95 ± 0.019	0.6 ± 0.013	0.531 ± 0.014
SG32 HEADNECK	1.37 ± 0.15	1.15 ± 0.063	1.29 ± 0.13	1.18 ± 0.26	1.22 ± 0.063	1.1 ± 0.12	1.64 ± 0.21	1.19 ± 0.062	1.19 ± 0.078	1.02 ± 0.12	0.952 ± 0.044	1.14 ± 0.031	0.758 ± 0.26	0.474 ± 0.036	0.432 ± 0.095	0.398 ± 0.023
PCI30 HEADNECK	1.02 ± 0.095	1 ± 0.057	1.07 ± 0.044	1.07 ± 0.046	1.03 ± 0.12	1.01 ± 0.013	0.975 ± 0.051	0.928 ± 0.038	0.891 ± 0.04	0.873 ± 0.077	1.01 ± 0.067	1.04 ± 0.084	0.964 ± 0.035	0.625 ± 0.032	0.567 ± 0.016	0.564 ± 0.0087
SIHA CERVIX	1.08 ± 0.065	1 ± 0.064	1.08 ± 0.033	–	1.06 ± 0.072	1.11 ± 0.026	1.07 ± 0.067	1.05 ± 0.064	0.799 ± 0.044	0.859 ± 0.034	0.933 ± 0.053	0.978 ± 0.042	1.01 ± 0.064	0.801 ± 0.046	0.631 ± 0.046	0.531 ± 0.034
HS57T BREAST	1.028 ± 0.0046	1.04 ± 0.052	1.06 ± 0.022	1.09 ± 0.08	1.04 ± 0.06	1.09 ± 0.04	1.02 ± 0.055	0.867 ± 0.021	0.907 ± 0.056	0.894 ± 0.049	0.955 ± 0.0027	0.94 ± 0.044	0.633 ± 0.069	0.535 ± 0.025	0.443 ± 0.013	0.414 ± 0.019
HCC1806 BREAST	1.08 ± 0.049	1.01 ± 0.16	1.11 ± 0.084	1.1 ± 0.18	1.11 ± 0.039	1.25 ± 0.09	1.09 ± 0.059	1.08 ± 0.077	0.995 ± 0.055	0.914 ± 0.11	1.14 ± 0.041	1.11 ± 0.031	0.658 ± 0.057	0.471 ± 0.042	0.583 ± 0.076	0.407 ± 0.04
BT549 BREAST	1.02 ± 0.08	1.06 ± 0.088	1.07 ± 0.16	1.24 ± 0.062	1.15 ± 0.068	1.28 ± 0.067	1.18 ± 0.03	1.15 ± 0.058	1.11 ± 0.058	1.09 ± 0.046	1.04 ± 0.12	1.05 ± 0.073	0.993 ± 0.1	0.494 ± 0.071	0.409 ± 0.071	0.237 ± 0.014
